In patent publication US20100056526A1, “HETEROMONOCYCLIC COMPOUND AND USE THEREOF” (Takeda Pharmaceutical Company Limited, priority 2006, published 2010):

Experiments:
[1] = target: T1, PPARγ (Homo sapiens, UniProt P37231); assay: Evaluation of PPARγ activating action (luciferase reporter in PPARγ:RXRα:4ERPP/CHO-K1 cells); type: cell-based; details: CHO-K1, 24 h; test compound 10^−6 M; luciferase activity relative to control compound X (1 μM) = 100%, non-administration group = 0%; read-out: PPARγ activating action (activation % (10^−6 M))
T1 construct: expressed in transfected cells; host or cells: CHO-K1
T1 sequence (P37231 1-477 isoform P37231-2): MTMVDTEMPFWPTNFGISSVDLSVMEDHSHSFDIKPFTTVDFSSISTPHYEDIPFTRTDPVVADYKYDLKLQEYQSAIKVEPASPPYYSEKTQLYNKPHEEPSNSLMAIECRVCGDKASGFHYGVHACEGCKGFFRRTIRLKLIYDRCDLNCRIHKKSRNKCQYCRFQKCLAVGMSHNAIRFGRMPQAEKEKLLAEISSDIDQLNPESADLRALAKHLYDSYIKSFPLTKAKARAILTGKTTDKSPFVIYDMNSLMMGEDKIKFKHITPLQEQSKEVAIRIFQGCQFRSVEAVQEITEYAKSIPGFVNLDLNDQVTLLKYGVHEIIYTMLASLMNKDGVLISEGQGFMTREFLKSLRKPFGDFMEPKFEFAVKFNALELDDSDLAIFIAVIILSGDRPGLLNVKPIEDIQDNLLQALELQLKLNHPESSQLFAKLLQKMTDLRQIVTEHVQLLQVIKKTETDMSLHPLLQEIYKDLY
T1 sequence (P19793 1-462 partner): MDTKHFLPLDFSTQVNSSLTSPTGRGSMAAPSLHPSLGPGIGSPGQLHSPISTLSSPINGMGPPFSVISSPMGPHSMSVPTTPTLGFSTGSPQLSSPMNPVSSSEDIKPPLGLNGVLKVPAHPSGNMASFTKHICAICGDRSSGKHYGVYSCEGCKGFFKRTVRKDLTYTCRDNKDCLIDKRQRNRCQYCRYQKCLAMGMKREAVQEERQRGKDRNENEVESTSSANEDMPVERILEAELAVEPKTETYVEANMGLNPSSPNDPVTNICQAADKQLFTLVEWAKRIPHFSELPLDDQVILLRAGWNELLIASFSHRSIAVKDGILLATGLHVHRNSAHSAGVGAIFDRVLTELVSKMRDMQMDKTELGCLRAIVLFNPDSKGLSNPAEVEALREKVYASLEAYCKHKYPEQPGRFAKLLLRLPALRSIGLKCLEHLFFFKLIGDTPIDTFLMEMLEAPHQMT
In short: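 Activity is expressed as percent, where vehicle gives 0% and 1 μM compound X gives 100%, based on luciferase luminescence. Reporter CHO-K1 cells co-expressing PPARγ:RXRα with a 4ERPP-driven luciferase were incubated with test compound for one day at 37 °C in medium with 0.1% fatty acid-free BSA.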

[2] = target: T2, human AT1 receptor (Homo sapiens, UniProt P30556); assay: Binding assay using human AT1 receptor-expressing CHO-K1 cell membrane fraction ([125I]-angiotensin II); details: 22.5 pM [125I]-angiotensin II, 9 μg AT1 membrane, 1 hr room temperature; read-out: AT1 receptor binding inhibitory action (IC50 (nM))
T2 construct: expressed in transfected cells; host or cells: CHO-K1
T2 sequence (P30556 1-359): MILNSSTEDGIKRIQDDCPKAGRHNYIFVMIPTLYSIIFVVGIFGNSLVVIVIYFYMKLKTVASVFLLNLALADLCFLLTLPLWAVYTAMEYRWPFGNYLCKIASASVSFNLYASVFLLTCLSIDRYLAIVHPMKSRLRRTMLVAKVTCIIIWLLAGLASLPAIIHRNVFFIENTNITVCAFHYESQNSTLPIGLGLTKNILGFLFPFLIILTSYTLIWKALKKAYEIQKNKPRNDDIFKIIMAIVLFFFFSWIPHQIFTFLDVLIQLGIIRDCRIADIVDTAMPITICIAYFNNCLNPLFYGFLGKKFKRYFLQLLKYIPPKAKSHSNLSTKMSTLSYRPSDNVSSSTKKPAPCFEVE
In short: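 Radioligand displacement: test compound competed with [125I]-angiotensin II (22.5 pM) on stable CHO-K1 AT1 membrane fraction, 1 hr, room temperature, Tris pH 7.4/MgCl2 buffer ± 0.3 mg/mL BSA. Filtration then scintillation counting; 1 μM CV-11974 defined nonspecific binding. Values are IC50s.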

activation at 1 µM [1] [%]	IC50 [2] [nM]	Structure (SMILES)
33.7	1.6	CCCc1nc(CC)n(-c2ccc(O[C@@H]3C[C@@H](C)O[C@@H](C)C3)cc2)c(=O)c1Cc1ccc(-c2ccccc2-c2noc(=O)[nH]2)cc1 [Example 417, 3-(4-{[(2R,4s,6S)-2,6-dimethyltetrahydro-2H-pyran-4-yl]oxy}phenyl)-2-ethyl-5-{[2′-(5-oxo-4,5-dihydro-1,2,4-oxadiazol-3-yl)biphenyl-4-yl]methyl}-6-propylpyrimidin-4(3H)-one]
27.2	1.3	CCCc1nc(CC)n(-c2ccc(OC3(CO)CCC3)cc2)c(=O)c1Cc1ccc(-c2ccccc2-c2noc(=O)[nH]2)cc1 [Example 419, 2-ethyl-3-(4-{[1-(hydroxymethyl)cyclobutyl]oxy}phenyl)-5-{[2′-(5-oxo-4,5-dihydro-1,2,4-oxadiazol-3-yl)biphenyl-4-yl]methyl}-6-propylpyrimidin-4(3H)-one]
22.2	0.9	CCCc1nc(CC)n(-c2ccc(OC3CCCC(O)C3)cc2)c(=O)c1Cc1ccc(-c2ccccc2-c2noc(=O)[nH]2)cc1 (stereo not drawn) [Example 422, 2-ethyl-3-{4-[(3-hydroxycyclohexyl)oxy]phenyl}-5-{[2′-(5-oxo-4,5-dihydro-1,2,4-oxadiazol-3-yl)biphenyl-4-yl]methyl}-6-propylpyrimidin-4(3H)-one]
33.5	1.3	CCCc1nc(CC)n(-c2ccc(OC3CCOC(C)C3)cc2)c(=O)c1Cc1ccc(-c2ccccc2-c2noc(=O)[nH]2)cc1 (stereo not drawn) [Example 424, 2-ethyl-3-{4-[(2-methyltetrahydro-2H-pyran-4-yl)oxy]phenyl}-5-{[2′-(5-oxo-4,5-dihydro-1,2,4-oxadiazol-3-yl)biphenyl-4-yl]methyl}-6-propylpyrimidin-4(3H)-one]
37.5	1.2	CCCc1nc(CC)n(-c2ccc(OC3CCC(O)C3)cc2)c(=O)c1Cc1ccc(-c2ccccc2-c2noc(=O)[nH]2)cc1 (stereo not drawn) [Example 425, 2-ethyl-3-{4-[(3-hydroxycyclopentyl)oxy]phenyl}-5-{[2′-(5-oxo-4,5-dihydro-1,2,4-oxadiazol-3-yl)biphenyl-4-yl]methyl}-6-propylpyrimidin-4(3H)-one]
17.7	1.4	CCCCc1nc(C)n(-c2ccc(OC(C)(C)COC)cc2)c(=O)c1Cc1ccc(-c2ccccc2-c2noc(=O)[nH]2)cc1 [Example 427, 6-butyl-3-[4-(2-methoxy-1,1-dimethylethoxy)phenyl]-2-methyl-5-{[2′-(5-oxo-4,5-dihydro-1,2,4-oxadiazol-3-yl)biphenyl-4-yl]methyl}pyrimidin-4(3H)-one]
18.1	1	CCCc1nc(C)n(-c2ccc(OC3CCCC(=O)CC3)cc2)c(=O)c1Cc1ccc(-c2ccccc2-c2noc(=O)[nH]2)cc1 (stereo not drawn) [Example 437, 2-methyl-3-{4-[(4-oxocycloheptyl)oxy]phenyl}-5-{[2′-(5-oxo-4,5-dihydro-1,2,4-oxadiazol-3-yl)biphenyl-4-yl]methyl}-6-propylpyrimidin-4(3H)-one]
20.1	1.4	CCCc1nc(C)n(-c2ccc(OC(C)(C)C(C)O)cc2)c(=O)c1Cc1ccc(-c2ccccc2-c2noc(=O)[nH]2)cc1 (stereo not drawn) [Example 439, 3-[4-(2-hydroxy-1,1-dimethylpropoxy)phenyl]-2-methyl-5-{[2′-(5-oxo-4,5-dihydro-1,2,4-oxadiazol-3-yl)biphenyl-4-yl]methyl}-6-propylpyrimidin-4(3H)-one]
29.9	1.6	CCCc1nc(C)n(-c2ccc(OC(C)(C)C(C)=O)cc2)c(=O)c1Cc1ccc(-c2ccccc2-c2noc(=O)[nH]2)cc1 [Example 440, 3-[4-(1,1-dimethyl-2-oxopropoxy)phenyl]-2-methyl-5-{[2′-(5-oxo-4,5-dihydro-1,2,4-oxadiazol-3-yl)biphenyl-4-yl]methyl}-6-propylpyrimidin-4(3H)-one]
55.4	1.3	CCCc1nc(CC)n(-c2ccc(OC(C)(C)C(C)O)cc2)c(=O)c1Cc1ccc(-c2ccccc2-c2noc(=O)[nH]2)cc1 (stereo not drawn) [Example 444, 2-ethyl-3-[4-(2-hydroxy-1,1-dimethylpropoxy)phenyl]-5-{[2′-(5-oxo-4,5-dihydro-1,2,4-oxadiazol-3-yl)biphenyl-4-yl]methyl}-6-propylpyrimidin-4(3H)-one]
62.9	1.2	CCCc1nc(CC)n(-c2ccc(OC(C)(C)C(C)=O)cc2)c(=O)c1Cc1ccc(-c2ccccc2-c2noc(=O)[nH]2)cc1 [Example 445, 3-[4-(1,1-dimethyl-2-oxopropoxy)phenyl]-2-ethyl-5-{[2′-(5-oxo-4,5-dihydro-1,2,4-oxadiazol-3-yl)biphenyl-4-yl]methyl}-6-propylpyrimidin-4 (3H)-one]
23.7	1.8	CCCc1nc(C)c(-c2ccc(OC(C)C)cc2)c(=O)n1Cc1ccc(-c2ccccc2-c2noc(O)n2)cc1F [Example 450, 3-{[3-fluoro-2′-(5-oxo-4,5-dihydro-1,2,4-oxadiazol-3-yl)biphenyl-4-yl]methyl}-5-(4-isopropoxyphenyl)-6-methyl-2-propylpyrimidin-4(3H)-one]
52.9	2.1	CCCCc1nc(C)c(C(O)c2ccccc2)c(=O)n1Cc1ccc(-c2ccccc2-c2noc(=O)[nH]2)cc1 (stereo not drawn) [Example 452, 2-butyl-5-[hydroxy(phenyl)methyl]-6-methyl-3-{[2′-(5-oxo-4,5-dihydro-1,2,4-oxadiazol-3-yl)biphenyl-4-yl]methyl}pyrimidin-4(3H)-one]
22.5	2.9	CCCCc1nc(C)c(C(=O)c2ccccc2)c(=O)n1Cc1ccc(-c2ccccc2-c2noc(=O)[nH]2)cc1 [Example 453, 5-benzoyl-2-butyl-6-methyl-3-{[2′-(5-oxo-4,5-dihydro-1,2,4-oxadiazol-3-yl)biphenyl-4-yl]methyl}pyrimidin-4(3H)-one]
16	2	CCCc1nc(CC)c(CN2CCOCC2)c(=O)n1Cc1ccc(-c2ccccc2-c2noc(=O)[nH]2)cc1 [Example 455, 6-ethyl-5-(morpholin-4-ylmethyl)-3-{[2′-(5-oxo-4,5-dihydro-1,2,4-oxadiazol-3-yl)biphenyl-4-yl]methyl}-2-propylpyrimidin-4(3H)-one]
30	1.8	CCCc1nc(CC)c(-c2ccc(OC)cc2)c(=O)n1Cc1ccc(-c2ccccc2-c2noc(O)n2)cc1 [Example 456, 6-ethyl-5-(4-methoxyphenyl)-3-{[2′-(5-oxo-4,5-dihydro-1,2,4-oxadiazol-3-yl)biphenyl-4-yl]methyl}-2-propylpyrimidin-4(3H)-one]
36	3.5	CCCc1nc(CC)c(-c2ccc(OC(F)(F)F)cc2)c(=O)n1Cc1ccc(-c2ccccc2-c2noc(O)n2)cc1 [Example 457, 6-ethyl-3-{[2′-(5-oxo-4,5-dihydro-1,2,4-oxadiazol-3-yl)biphenyl-4-yl]methyl}-2-propyl-5-[4-(trifluoromethoxy)phenyl]pyrimidin-4(3H)-one]
36	2.2	CCCc1nc(CC)c(-c2ccc(OC(C)C)cc2F)c(=O)n1Cc1ccc(-c2ccccc2-c2noc(O)n2)cc1 [Example 458, 6-ethyl-5-(2-fluoro-4-isopropoxyphenyl)-3-{[2′-(5-oxo-4,5-dihydro-1,2,4-oxadiazol-3-yl)biphenyl-4-yl]methyl}-2-propylpyrimidin-4(3H)-one]
